Experiments:
Format in all cases: cell-based, human
[1] = test system: MUC1 expression on CAR-MUC1-resistant CAPAN1 cells; assay: MUC1 antigen expression by flow after decitabine treatment; details: 1 μM, after 4 days of treatment; 3.5 before exposure
Procedure: One million CAPAN1 cells were fixed with 80% methanol and washed with 0.1% tween-PBS. 1 ug of anti-MUC1 antibody (Abcam Inc, Cambridge, Mass.) was added and incubated at RT for 30 mins. Then cultures were washed and incubated with 0.4 ug of a goat anti-mouse IgG APC antibody (BD Pharmingen, San Jose, Calif.) for 20 mins at 4° C. in the dark. Cells were then washed twice and analyzed.
CAPAN1 cells were culture in a T175 flask using complete IMDM media contained 1 μM 5-Aza-2′-deoxycytidine-decitabine-(Sigma-aldrich Inc., Saint Louis, Mo.) for 4 days, with fresh media+decitabine replenished daily. Subsequently, decitabine-treated CAPAN1 cells were rested for 2 days in complete IMDM, and then co-cultured with CAR-MUC1 T cells.
Finally, to determine whether CAR-T cell potency could be improved by combination with conventional epigenetic modulators, which can increase TAA expression by demethylating DNA, CAPAN1 cells were cultured that had been previously treated with CAR-MUC1 T cells and consequently expressed only low levels of the target antigen, with 1 μM of decitabine, a hypomethylating agent.

[2] = test system: CAPAN1 cells initially treated with CAR-MUC1 T cells; assay: 72 hr co-culture of decitabine-treated resistant CAPAN1 cells with CAR-MUC1 T cells; details: 1 μM for 4 days, then 72 hr co-culture, E:T 5:1
Description: Data is reported as the mean±SD; n=4. (b) To determine whether decitabine exposure would upregulate MUC1 expression in this resistant population we evaluated antigen expression, by flow, on CAR-resistant cells (grey histogram) and those cultured in decitabine (black histogram). To next assess whether decitabine treatment resensitized CAPAN1 cells to CAR-MUC1 T cells we performed a 72-hr co-culture experiment using CAPAN1 cells initially treated with CAR-MUC1 T cells (c) then either left untreated or cultured with decitabine as targets (E:T 5:1). After 72-hours retreatment with CAR-MUC1 T cells, residual tumor cells were again quantified by flow. Data is reported as the mean±SD; n=2.
CAPAN1, 293T, 293T-MUC1-mOrange or 293T-PSCA-GFP, were used as targets. Briefly, GFP/CAPAN1 cells were mixed with either OKT3/CD28 blasts or CAR-modified T cells at a 1:5 ratio in the presence of IL2 (50 U/ml) in complete media. For our engineered tumor model, 293T-MUC1-mOrange and 293T-PSCA-GFP (or control 293T cells alone) were mixed at 1:1 ratio then OKT3/CD28 blasts or CAR-modified T cells were added to the mixture; 10:1 (T cells:tumor cell), in the presence of IL2 (50 U/ml) in complete media. After 72 hours all residual cells were collected, counted, stained and then analyzed by flow cytometry (Gallios; Beckman Coulter Inc., Brea, Calif.). […]

[3] = test system: CAR-MUC1 expression on effector T cells; assay: CAR expression on modified T cells cultured with decitabine; details: after one day and several days
Procedure: T cells were analyzed 3-4 weeks after the generation of the culture by surface-stained with monoclonal antibodies to: CD3, CD4, CD8, CD19, CD56, CD27, CD28, CD45RO, and CD62L (Becton Dickinson B D, Franklin Lakes, N.J.). Cells were washed once with PBS supplemented with 2% FBS, pelleted, and antibodies added in saturating amounts (10 ul). To detect CAR-transduced cells, T cells were stained with a monoclonal antibody Fc-specific cyanine-Cy5-conjugated antibody (Jackson Immuno Research Laboratories, Inc., West Grove, Pa.), which recognizes the IgG1-CH2CH3 component of the receptor. Cells were analyzed using a Gallios Flow cytometer and the data analyzed using Kaluza software (Beckman Coulter Inc., Brea, Calif.).
It is illustrated therein that one can modulate the intensity of CAR-MUC1 expression on effector cells when the effector cells are cultured with decitabine.

## Nc1ncn([C@H]2C[C@H](O)[C@@H](CO)O2)c(=O)n1 [decitabine, 5-Aza-2′-deoxycytidine]
[1]
  intensity of MUC1 expression: 26.0 relative mean fluorescence intensity
[2]
  re-sensitization of resistant tumor cells to CAR-MUC1 T cell killing: re-sensitizing previously resistant tumor cells to CAR-MUC1 T cell killing
[3]
  CAR-MUC1 expression on effector cells: increase in expression
